Source: publication PMC10931676 (International Journal of Molecular Sciences, 2024)
Read-outs that look alike come from different tables or passages of the source.

Assay: Permeability and efflux ratio in Caco-2 cells
Assay type: in vitro ADME
Details: human; for recovery at 120 min, 10 µM: Caco-2, Caco-2, 10 µM
Experimental: Human colon carcinoma (Caco-2) cells, which were obtained from Military Medical Research Institute, were maintained in Dulbecco’s modified Eagle’s medium. Caco-2 cells were seeded onto […] (PET) in 96-well Falcon insert systems at 2 × 10^5 cells/cm^2 for 21–28 days for confluent cell monolayer formation. […] Test compounds were diluted with the transport buffer (HBSS without BSA) from a 10 mM stock solution to a concentration of 10 µM and applied to the apical or basolateral side of the cell monolayer. Permeation of the test compounds in the direction from A to B or from B to A was determined in duplicate over a 120-min incubation at 37 °C and 5% CO2 with a relative humidity of 95%. In addition, the efflux ratio of each compound was also determined. Test and reference compounds were quantified by LC-MS/MS analysis based on the peak area ratio of analyte/IS. The apparent permeability coefficient Papp (cm/s) was calculated using the following equation:Papp = (dCr/dt) × Vr/(A × C0) where dCr/dt is the cumulative concentration of the compound in the receiver chamber as a function of time (S); Vr is the solution volume in the receiver chamber (0.1 mL on the apical side, 0.25 mL on the basolateral side); A is the surface area for the transport, i.e., 0.0804 cm^2 for the area of the monolayer; C0 is the initial concentration in the donor chamber. […] Cd and Cr are the final concentrations of transport compound in donor and receiver chambers, respectively. Cc is the compound concentration in the cell lysate solution. Vc is the volume of insert well (0.1 mL in this assay).

[1] = Caco-2, 10 µM, 120-min incubation, 37 °C

recovery at 120 min, 10 µM (read-out: Mean Recovery % B to A) [%]	Papp A→B at 120 min, 10 µM [1] [×10⁻⁶ cm/s]	Papp B→A at 120 min, 10 µM [1] [×10⁻⁶ cm/s]	recovery at 120 min, 10 µM (read-out: Mean Recovery % A to B) [%]	SMILES
95.3	0.65	14.6	–	C[C@H]1O[C@@H](O[C@H]2[C@@H](O)C[C@H](O[C@H]3[C@@H](O)C[C@H](O[C@H]4CC[C@@]5(C)[C@H](CC[C@@H]6[C@@H]5C[C@@H](O)[C@]5(C)[C@@H](C7=CC(=O)OC7)CC[C@]65O)C4)O[C@@H]3C)O[C@@H]2C)C[C@H](O)[C@@H]1O [Digoxin]
–	29.4	–	81	CC(C)NCC(O)COc1cccc2ccccc12 (centres unmarked) [Propranolol]
